Measured values as given in US5578570A, “Method of treating septic shock using thymosin β4” (The George Washington University Medical Center, priority 1994, dated 1996).

Experiments:
IL1 α = test: IL1α levels in a septic shock model in rat; assay type: in vivo; details: rats with septic shock + Tβ4 1 mg/rat × 3
Text: Using a septic shock model in rats (Sprague-Dawley, male, 200-225 g each), the effect of thymosin β4 alone and together with antibiotics was studied. Peritonitis was induced in rats in the following way. A 1-cm incision was made into the peritoneal which exposed the cecum. A tight ligature was placed around the cecum with 4-0 suture distal to the insertion of the small bowel, forming an area of devitalized tissue while maintaining bowel continuity. A puncture wound was made with 16-gauge needle into the anti-mesenteric surface of the cecum and a small amount of fecal contents was expressed through the wound. The cecum was replaced into the peritoneal cavity, and the anterior peritoneal wall and skin were closed with surgical staples. Each animal was given a bolus of normal saline (15 ml/kg) for hydration and allowed to recover overnight.
The results presented in Tables XV to XVIII below show effects of Tβ4 respectively on rat cytokine levels, blood malonyldialdehyde levels, glutathione levels and arachidonic acid metabolic levels.

cGMP = cGMP cerebellar levels in mice treated with lethal doses of endotoxin; assay type: in vivo; details: endotoxin 60 mg/kg i.p. + Tβ4 0.8 mg/kg i.p.
Text: The results presented in Tables III-V below show effects of Tβ4 respectively on mice cerebellar cGMP levels, blood serum TNF-α levels, and blood serum TNF-α and IL-1α levels.

Substance: Thymosin β4 [Tβ4]
- IL1 α (IL1 α): 853 ± 62 pg/mL
- Cerebellar cortex cyclic GMP (cGMP): 12.1 ± 0.9 pmol per mg/protein
